Experimental data reported in patent publication US12186354B2, “Lespedeza capitata extract for use in the field of hair care” (priority 2018, dated 2025).

How the values were obtained:
[1] = test system: 5α-reductase; assay: 5α-reductase activity (DHT/testosterone ratio) in dermal papilla cells, C14 testosterone metabolism; type: cell-based, human; details: 10 μM, incubation 24 h+24 h
[2] = test system: JAK1/2-STAT3 pathway; assay: IL-6-induced STAT3 phosphorylation in follicular keratinocytes of the outer root sheath (ORS); type: cell-based, human; details: 5 μM, 1 h pre-treatment, IL-6 100 ng/ml 15 minutes

| SMILES | % inh (DHT/testosterone ratio, relative to the control condition) [1] [%] | Mean DHT/testosterone ratio (5α-reductase activity) [1] | % of STAT phosphorylated, Mean [2] [%] |
| --- | --- | --- | --- |
| CC(C)(C)NC(=O)[C@H]1CC[C@H]2[C@@H]3CC[C@H]4NC(=O)C=C[C@]4(C)[C@H]3CC[C@]12C [Finasteride, finasteride] | 94.2 | 0.02 | – |
| N#CC[C@H](C1CCCC1)n1cc(-c2ncnc3[nH]ccc23)cn1 [Ruxolitinib, ruxolitinib] | – | – | 102 |
